Where “and” joins values, the source holds several entries; their conditions need not be identical. Equal entries are not always repeated. Toxic doses and inconclusive results are not listed.
System: CD2F1 mice, L1210 leukemia sc, survival T/C
Assay: NCI In Vivo Anticancer Drug Screen. Data for tumor model L1210 Leukemia (subcutaneous) in CD2F1 (CDF1) mice
Details: endpoint: median survival time, higher = longer survival
Method in brief: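 Transplantable tumor-bearing mice were treated with compound; survival or tumor size measured and expressed as treated-group value (T) divided by vehicle-treated control value (C).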

[1] = dose: 25.0 mg/kg/injection, schedule: Q01DX009 (ip), vehicle: Klucel (hydroxypropylcellulose) (HPC)

Q: For CN(N=O)C(=O)N[C@@H](C=O)[C@@H](O)[C@H](O)[C@H](O)CO, which T/C (dose: 12.5 mg/kg/injection, schedule: Q01DX009 (ip), vehicle: other) is on record?
A: 110 % of control

Q: And the T/C (dose: 12.5 mg/kg/injection, schedule: Q01DX009 (sc), vehicle: other)?
A: 104 % of control and 109 % of control

Q: What about the T/C (dose: 25.0 mg/kg/injection, schedule: Q01DX009 (ip), vehicle: other) of the same compound?
A: 124 % of control

Q: And the T/C (dose: 25.0 mg/kg/injection, schedule: Q01DX009 (sc), vehicle: other)?
A: 106 % of control and 122 % of control

Q: And the T/C (dose: 50.0 mg/kg/injection, schedule: Q01DX009 (sc), vehicle: other)?
A: 109 % of control

Q: And the T/C (dose: 100.0 mg/kg/injection, schedule: Q01DX009 (ip), vehicle: other)?
A: 121 % of control

Q: What about the T/C (dose: 100.0 mg/kg/injection, schedule: Q01DX009 (sc), vehicle: other) of the same compound?
A: 115 % of control

Q: And the T/C (dose: 200.0 mg/kg/injection, schedule: Q01DX009 (sc), vehicle: other)?
A: 111 % of control

Q: Which T/C (dose: 21.6 mg/kg/injection, schedule: Q01DX009 (ip), vehicle: water) does the source give for CN1CCN(CN2C(=O)C3C4C=CC(C3C2=O)C2C3C(=O)N(CN5CCN(C)CC5)C(=O)C3C42)CC1 (stereo not drawn) here?
A: 106 % of control

Q: And the T/C (dose: 24.8 mg/kg/injection, schedule: Q01DX009 (ip), vehicle: water)?
A: 118 % of control

Q: And the T/C (dose: 36.0 mg/kg/injection, schedule: Q01DX009 (ip), vehicle: water)?
A: 113 % of control

Q: What about the T/C (dose: 41.3 mg/kg/injection, schedule: Q01DX009 (ip), vehicle: water) of the same compound?
A: 150 % of control

Q: And the T/C (dose: 60.0 mg/kg/injection, schedule: Q01DX009 (ip), vehicle: water)?
A: 170 % of control

Q: What about the T/C (dose: 68.8 mg/kg/injection, schedule: Q01DX009 (ip), vehicle: water) of the same compound?
A: 174 % of control

Q: And the T/C (dose: 100.0 mg/kg/injection, schedule: Q01DX009 (ip), vehicle: water)?
A: 243 % of control

Q: What about the T/C (dose: 114.7 mg/kg/injection, schedule: Q01DX009 (ip), vehicle: water) of the same compound?
A: 235 % of control

Q: For CSC1SCC2C(=O)N(C)C(C(C)C)C(=O)OCC(NC(=O)c3cnc4ccccc4n3)C(=O)NC(C)C(=O)N(C)C1C(=O)N(C)C(C(C)C)C(=O)OCC(NC(=O)c1cnc3ccccc3n1)C(=O)NC(C)C(=O)N2C (stereo not drawn), which T/C (dose: 7.5 micrograms/kg/injection, schedule: Q01DX009 (ip), vehicle: Klucel (hydroxypropylcellulose) (HPC)) is on record?
A: 98 % of control

Q: And the T/C (dose: 15.0 micrograms/kg/injection, schedule: Q01DX009 (ip), vehicle: Klucel (hydroxypropylcellulose) (HPC))?
A: 97 % of control

Q: What about the T/C (dose: 30.0 micrograms/kg/injection, schedule: Q01DX009 (ip), vehicle: Klucel (hydroxypropylcellulose) (HPC)) of the same compound?
A: 96 % of control

Q: What about the T/C (dose: 60.0 micrograms/kg/injection, schedule: Q01DX009 (ip), vehicle: Klucel (hydroxypropylcellulose) (HPC)) of the same compound?
A: 100 % of control

Q: What about the T/C (dose: 120.0 micrograms/kg/injection, schedule: Q01DX009 (ip), vehicle: Klucel (hydroxypropylcellulose) (HPC)) of the same compound?
A: 102 % of control

Q: What does the source list for O=S1(=O)CS(=O)(=O)OCCO1?
A: T/C [1]: 216 % of control; T/C (dose: 50.0 mg/kg/injection, schedule: Q01DX009 (ip), vehicle: Klucel (hydroxypropylcellulose) (HPC)): 175 % of control

Q: CC(CN1CC(=O)NC(=O)C1)N1CC(=O)NC(=O)C1 (stereo not drawn) was tested. Which T/C (dose: 1.25 mg/kg/injection, schedule: Q01DX009 (ip), vehicle: saline with Tween-80) did it give?
A: 119 % of control

Q: And the T/C (dose: 1.88 mg/kg/injection, schedule: Q01DX009 (sc), vehicle: saline with Tween-80)?
A: 113 % of control

Q: And the T/C (dose: 2.5 mg/kg/injection, schedule: Q01DX009 (ip), vehicle: saline with Tween-80)?
A: 114 % of control

Q: And the T/C (dose: 15.0 mg/kg/injection, schedule: Q01DX009 (ip), vehicle: saline with Tween-80)?
A: 159 % of control

Q: And the T/C (dose: 15.0 mg/kg/injection, schedule: Q01DX009 (sc), vehicle: saline with Tween-80)?
A: 178 % of control

Q: What about the T/C (dose: 15.0 mg/kg/injection, schedule: Q01DX009 (sc), vehicle: saline) of the same compound?
A: 124 % of control

Q: And the T/C (dose: 20.0 mg/kg/injection, schedule: Q01DX009 (sc), vehicle: saline with Tween-80)?
A: 156 % of control

Q: And the T/C (dose: 30.0 mg/kg/injection, schedule: Q01DX009 (ip), vehicle: saline with Tween-80)?
A: 178 % of control

Q: What about the T/C (dose: 35.0 mg/kg/injection, schedule: Q01DX009 (sc), vehicle: saline with Tween-80) of the same compound?
A: 191 % of control

Q: What about the T/C (dose: 40.0 mg/kg/injection, schedule: Q01DX009 (ip), vehicle: saline with Tween-80) of the same compound?
A: 165 % of control

Q: What about the T/C (dose: 40.0 mg/kg/injection, schedule: Q01DX009 (sc), vehicle: saline with Tween-80) of the same compound?
A: 186 % of control

Q: And the T/C (dose: 45.0 mg/kg/injection, schedule: Q01DX009 (sc), vehicle: saline with Tween-80)?
A: 190 % of control and 192 % of control

Q: And the T/C (dose: 50.0 mg/kg/injection, schedule: Q01DX009 (sc), vehicle: saline with Tween-80)?
A: 195 % of control

Q: What about the T/C (dose: 60.0 mg/kg/injection, schedule: Q01DX009 (sc), vehicle: saline with Tween-80) of the same compound?
A: 164 % of control

Q: What about the T/C (dose: 90.0 mg/kg/injection, schedule: Q01DX009 (ip), vehicle: saline with Tween-80) of the same compound?
A: 123 % of control

Q: And the T/C (dose: 100.0 mg/kg/injection, schedule: Q01DX009 (sc), vehicle: saline with Tween-80)?
A: 163 % of control

Q: And the T/C (dose: 108.0 mg/kg/injection, schedule: Q04DX003 (sc), vehicle: Klucel (hydroxypropylcellulose) (HPC))?
A: 119 % of control and 122 % of control

Q: And the T/C (dose: 120.0 mg/kg/injection, schedule: Q01DX009 (ip), vehicle: saline with Tween-80)?
A: 158 % of control

Q: What about the T/C (dose: 120.0 mg/kg/injection, schedule: Q01DX009 (sc), vehicle: saline) of the same compound?
A: 157 % of control

Q: What about the T/C (dose: 180.0 mg/kg/injection, schedule: Q04DX003 (sc), vehicle: Klucel (hydroxypropylcellulose) (HPC)) of the same compound?
A: 122 % of control

Q: And the T/C (dose: 240.0 mg/kg/injection, schedule: Q01DX009 (ip), vehicle: saline with Tween-80)?
A: 97 % of control

Q: What about the T/C (dose: 240.0 mg/kg/injection, schedule: Q01DX009 (sc), vehicle: saline with Tween-80) of the same compound?
A: 86 % of control

Q: And the T/C (dose: 300.0 mg/kg/injection, schedule: Q04DX003 (sc), vehicle: Klucel (hydroxypropylcellulose) (HPC))?
A: 153 % of control

Q: And the T/C (dose: 833.0 mg/kg/injection, schedule: Q04DX003 (sc), vehicle: Klucel (hydroxypropylcellulose) (HPC))?
A: 111 % of control and 112 % of control

Q: CC(=O)OCC(=O)[C@@]1(O)CC[C@H]2[C@@H]3CCC4=CC(=O)CC[C@]4(C)[C@@]3(F)[C@@H](O)C[C@@]21C was tested. Which T/C (dose: 300.0 mg/kg/injection, schedule: Q01DX Z (sc), vehicle: methylcellulose (MC)) did it give?
A: 121 % of control

Q: What about the T/C (dose: 500.0 mg/kg/injection, schedule: Q01DX Z (sc), vehicle: methylcellulose (MC)) of the same compound?
A: 115 % of control

Q: Which T/C (dose: 50.0 mg/kg/injection, schedule: Q01DX009 (sc), vehicle: saline) does the source give for Nc1nc2n[nH]nc2c(=O)[nH]1 here?
A: 122 % of control

Q: And the T/C (dose: 75.0 mg/kg/injection, schedule: Q01DX009 (sc), vehicle: saline)?
A: 114 % of control

Q: Which T/C (dose: 3.12 mg/kg/injection, schedule: Q01DX009 (ip), vehicle: Klucel (hydroxypropylcellulose) (HPC)) does the source give for Nc1c(/C=C/c2cc3cc(C4=NCCN4)ccc3o2)[nH]c2cc(C3=NCCN3)ccc12 here?
A: 100 % of control

Q: And the T/C (dose: 6.25 mg/kg/injection, schedule: Q01DX009 (ip), vehicle: Klucel (hydroxypropylcellulose) (HPC))?
A: 100 % of control

Q: And the T/C (dose: 12.5 mg/kg/injection, schedule: Q01DX009 (ip), vehicle: Klucel (hydroxypropylcellulose) (HPC))?
A: 96 % of control

Q: What about the T/C [1] of the same compound?
A: 106 % of control

Q: N#CC(c1ccccc1)c1cccc2ccccc12 (stereo not drawn) was tested. Which T/C (dose: 23.0 mg/kg/injection, schedule: Q01DX Z (sc), vehicle: methylcellulose (MC)) did it give?
A: 109 % of control

Q: What about the T/C (dose: 39.0 mg/kg/injection, schedule: Q01DX Z (sc), vehicle: methylcellulose (MC)) of the same compound?
A: 119 % of control

Q: And the T/C (dose: 65.0 mg/kg/injection, schedule: Q01DX Z (sc), vehicle: methylcellulose (MC))?
A: 152 % of control

Source: PubChem BioAssay AID258 (DTP/NCI, 2004)
